The record followed here is ChEMBL document CHEMBL1201862, “PubChem BioAssay data set” (2004).

Some test systems named below: EKVX; SF-539; TK-10; SF-268; Malme-3M; HCT-15; HCC 2998; OVCAR-3; UACC-257; SR; M14; NCI-H23; HL-60; ACHN; OVCAR-4; CAKI-1.
Common to all, as to test: NCI-60 cell line screen, 48 h

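In this assay, cells in 96-well plates receive the compound at five concentrations for 48 hours. Endpoints are linearly interpolated between the surrounding concentrations. GI50 is the concentration that inhibits growth by half.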 The source made the active and inactive calls. No stated cut-off is given here; in the data, active = GI50 up to about 1.1 µM and inactive = higher. Where only a bound is given, the exact number is not on record here.

As for `COc1ccc2c(CN3CCCCC3CO)cc3cc(OC)c(OC)cc3c2c1` (stereo not given), the GI50 was 6.41 µM (inactive) with EKVX; 4.02 µM (inactive) with SF-539; 4.7 µM (inactive) with TK-10; 6.28 µM (inactive) with SF-268; 4.63 µM (inactive) in the assay with Malme-3M; 4.38 µM in the assay on HCT-15. The GI50 was 7.59 µM (inactive) in the assay with HCC 2998; 5.57 µM (inactive) in the assay with OVCAR-3; 3.82 µM (inactive) in the assay with UACC-257; 3.72 µM (inactive) in the assay on SR; 4.74 µM (inactive) in the assay on M14; 3.81 µM (inactive) in the assay on NCI-H23. The figures for the GI50 in the assay on HL-60 and in the assay with ACHN were 3.38 µM (inactive) and 3.5 µM (inactive), respectively.

Turning to `CC1=C(c2cc(C(=O)Nc3nccs3)nc(NC#N)n2)Sc2ccccc2N1`, the GI50 is > 100 µM (inactive) in the assay on EKVX; > 100 µM (inactive) with SF-539; > 100 µM (inactive) in the assay with TK-10; > 100 µM (inactive) in the assay with SF-268; > 100 µM (inactive) in the assay on Malme-3M; 65.3 µM with HCT-15. In addition, the GI50 with OVCAR-3, in the assay with UACC-257, in the assay on SR, in the assay on M14, in the assay on NCI-H23 and in the assay on HL-60 was > 100 µM (inactive) each time. In addition, the GI50 in the assay with OVCAR-4, with CAKI-1 and in the assay with ACHN was > 100 µM (inactive) each time.

Regarding `COC1OC(CBr)C(OC(=O)c2ccccc2)C(O)C1Br` (stereo not given), the GI50 in the assay on SF-539 is > 100 µM (inactive); in the assay with TK-10 it was > 100 µM (inactive); in the assay with SF-268, > 100 µM (inactive); in the assay on Malme-3M, > 100 µM (inactive); in the assay on HCT-15, more than 100 µM; in the assay on HCC 2998, > 100 µM (inactive). Further, the GI50 was > 100 µM (inactive) in the assay on OVCAR-3; > 10 µM (inactive) in the assay on UACC-257; > 100 µM (inactive) with SR; > 100 µM (inactive) with M14; > 100 µM (inactive) in the assay on NCI-H23; > 100 µM (inactive) in the assay on HL-60. The GI50 in the assay on OVCAR-4 and with CAKI-1 was > 100 µM (inactive) each time.

Take `O=C(CSc1nnc(-c2ccc(/N=C\c3ccc(Cl)cc3)cc2)o1)Nc1ccccc1Cl`: the GI50 with EKVX is > 100 µM (inactive); with TK-10, > 100 µM (inactive); with SF-268, > 100 µM (inactive); in the assay with Malme-3M, > 100 µM (inactive); in the assay with HCT-15, more than 100 µM; in the assay with UACC-257, 20.7 µM (inactive). Further, the GI50 with SR, in the assay with M14, in the assay with NCI-H23, in the assay with HL-60, with OVCAR-4 and with ACHN was > 100 µM (inactive) in each case.

`NC(=O)NNC/C(Cl)=C(\Cl)C(=O)O`: the GI50 in the assay with EKVX is > 100 µM (inactive); with SF-539 it was > 100 µM (inactive); with TK-10 it was > 100 µM (inactive); with SF-268, > 100 µM (inactive); in the assay with Malme-3M, > 100 µM (inactive); in the assay on HCT-15, more than 100 µM. In addition, the GI50 with HCC 2998 was > 100 µM (inactive); in the assay with OVCAR-3, > 100 µM (inactive); in the assay with UACC-257, > 82.6 µM (inactive); in the assay with M14, > 100 µM (inactive); with NCI-H23, > 100 µM (inactive); in the assay with HL-60, > 100 µM (inactive). The GI50 with OVCAR-4, with CAKI-1 and in the assay with ACHN was > 100 µM (inactive) throughout.

As for `O=c1nc(NC(c2ccccc2)(c2ccccc2)c2ccccc2)ccn1CCO`, the GI50 with EKVX was 81.8 µM (inactive); with SF-539, > 100 µM (inactive); in the assay on TK-10, > 100 µM (inactive); in the assay on SF-268 it was 66.4 µM (inactive); in the assay on Malme-3M, > 100 µM (inactive); in the assay with HCT-15, 63.5 µM. Besides, the GI50 in the assay on HCC 2998 was > 100 µM (inactive); with OVCAR-3, 40.2 µM (inactive); with UACC-257 it was > 100 µM (inactive); in the assay on SR, 36.3 µM (inactive); in the assay with NCI-H23, > 100 µM (inactive); in the assay with HL-60, 41 µM (inactive). The GI50 with OVCAR-4 was 63.2 µM (inactive); in the assay with ACHN, 48.5 µM (inactive).

For `O=C(O)CCSC(=O)Nc1ccccc1Cl`, the GI50 in the assay on EKVX was > 100 µM (inactive); with SF-539, > 100 µM (inactive); in the assay on TK-10, > 100 µM (inactive); with SF-268 it was > 100 µM (inactive); with Malme-3M, > 100 µM (inactive); in the assay on HCT-15, more than 100 µM. Besides, the GI50 in the assay with HCC 2998, in the assay on OVCAR-3, in the assay with UACC-257, in the assay on SR, with M14 and in the assay with NCI-H23 was > 100 µM (inactive) each time. The GI50 with OVCAR-4, in the assay with CAKI-1 and in the assay with ACHN was > 100 µM (inactive) each time.

Turning to `COc1cc2c(cc1OC)/C(=C\c1ccccc1N)C(=O)OC2`, the GI50 in the assay on EKVX is 25 µM (inactive); in the assay on SF-539, 15.7 µM (inactive); in the assay with TK-10, 20.6 µM (inactive); in the assay with SF-268, 20.9 µM (inactive); in the assay on Malme-3M, 13.9 µM (inactive); in the assay with HCT-15 it was 7.19 µM. Also, the GI50 with HCC 2998 was 23.3 µM (inactive); with OVCAR-3, 18.7 µM (inactive); with UACC-257 it was 15.1 µM (inactive); with M14 it was 19.3 µM (inactive); in the assay on NCI-H23 it was 16.1 µM (inactive); in the assay with HL-60, 3.3 µM (inactive). In addition, the GI50 in the assay with OVCAR-4 was 14.9 µM (inactive); with CAKI-1, 12 µM (inactive); with ACHN it was 18.3 µM (inactive).

In the case of `O=C(NNC(=O)c1cc(/C=C/c2cccc([N+](=O)[O-])c2)nc(S)n1)Nc1ccc(Cl)cc1`, the GI50 was > 100 µM (inactive) in the assay on EKVX; > 100 µM (inactive) in the assay with TK-10; > 100 µM (inactive) in the assay on SF-268; > 100 µM (inactive) with Malme-3M; 35.6 µM with HCT-15; > 100 µM (inactive) in the assay on HCC 2998. The GI50 in the assay with OVCAR-3 is 62.8 µM (inactive); with UACC-257, 91 µM (inactive); in the assay with SR it was 1.25 µM (inactive); with M14, 93.8 µM (inactive); in the assay with NCI-H23, 77.4 µM (inactive); in the assay with HL-60, 0.883 µM (active). Moreover, in the assay with ACHN, the GI50 was > 100 µM (inactive).

With `CC(C)C(N)=O` [ISOBUTYRAMIDE], the GI50 in the assay with SF-539 was > 5000 µM (inactive); in the assay with TK-10 it was > 5000 µM (inactive); in the assay with SF-268 it was > 5000 µM (inactive); with Malme-3M, > 5000 µM (inactive); with HCT-15 it was more than 5000 µM; with UACC-257 it was > 5000 µM (inactive). Further, the GI50 in the assay with SR, in the assay on M14, in the assay with NCI-H23, in the assay with HL-60, with OVCAR-4 and in the assay on CAKI-1 was > 5000 µM (inactive) throughout. For the same compound, the GI50 in the assay on ACHN was > 5000 µM (inactive).
